Data taken from US20030143199A1, “Use of STAT-6 inhibitors as therapeutic agents” (priority 2001, published 2003).
Entries after “also recorded” stand apart in the source; their conditions may differ.

Key:
[1] = test system: malignant lymphocytes from two patients with chronic lymphocytic leukemia [CLL]; assay: Effect of the p53 inhibitory compounds on B-CLL viability (PI exclusion by FACS, MTT), 3 days culture; format: cell-based; details: FIG. 1
From the text: The malignant lymphocytes from two patients with chronic lymphocytic leukemia [CLL] were isolated by ficoll-hypaque sedimentation and suspended at a density of 1 million cells per milliliter in RPMI 1640 medium supplemented with 10% fetal bovine serum. Two hundred microliter aliquots of cells were dispersed in the wells of culture plates containing the indicated final concentrations of either PFT-α (“PFT-open”) or IBT (PFT-closed). After 3 days culture, viable cells were enumerated by fluorescence-activated cell sorting [FACS] after staining with propidium iodide [PI]. Viable cells excluded the dye [open circles]. In addition, cell metabolism was assessed by the ability of the cells to […] the tetrazolium dye MTT [closed squares].

[2] = test system: Chronic lymphocytic leukemia [CLL] cells; assay: Protection against spontaneous apoptosis and fludarabine-induced apoptosis (PI negative / DiOC6 high cells by FACS); format: cell-based; details: one micromolar, 3 days culture, FIG. 2
Procedure: Chronic lymphocytic leukemia [CLL] cells were cultured for 3 days as described in Example 2. Some of the cultures were supplemented with one micromolar of PFT-open or PFT-closed, as indicated. In the experiment shown in the bottom panel of FIG. 2, some of the cultures also contained the cytotoxic adenine nucleoside analog fludarabine [abbreviated F-AraA]. Fludarabine is the first line treatment for CLL, and the toxicity of the drug is dependent upon the p53 pathway. To assess healthy, viable cells, staining was done with both PI, as indicated in Example 2, and with the mitochondrial dye DiOC6. Cells that were both PI negative and DIOC6 high were enumerated by FACS.

[3] = test system: BEAS-2B human airway epithelial cells; assay: Viability of treated cells at end of incubation in the 12/15-lipoxygenase promoter/luciferase STAT-6 reporter assay; format: cell-based; details: 10 μM for 1 hour, then IL-4 10 ng/ml, 16 hours
Procedure: The BEAS-2B human airway epithelial cells were transiently transfected with the human 12/15-lipoxygenase promoter/luciferase reporter gene. Cells were then incubated with the IBT analogs (FIG. 5) at 10 μM for 1 hour, followed by IL-4 (10 ng/ml). After 16 hours, luciferase was measured using a chemiluminometer. The STAT-6 induction was normalized using the B-gal results as “background.” The viability of the treated cells was visually verified at the end of the incubation, and found to be >95%. Results shown in FIG. 3 are the mean of duplicate measurements.
Human airway epithelial cells, BEAS-2B, were transiently transfected with the human 12/15-lipoxygenase promoter/luciferase reporter plasmid with and without a STAT6 expressing plasmid. The cells were incubated with 10 μM of STAT-6 (Control Sample 1); 10 μM STAT-6 (Sample 2); a mixture of STAT-6 and compound 8 (Sample 3); and compound 8 alone (Sample 4); for 1 hour. This was followed treatment with 10 ng/mL of IL-4 (except control). After 16 hours, luciferase was measured using a chemiluminometer. The STAT-6 induction was normalized using the β-gal results as “background”. The viability of the treated cells was visually verified at the end of the incubation, and found to be>95%. The results are illustrated in FIG. 7.

[4] = test system: Human Hodgkin's lymphoma cells L1236; assay: Effect of IBT and interferon on Hodgkin's lymphoma cells (CellTiter 96 MTS viability); format: cell-based; details: 3, 5 or 7 days; IBT at doses up to 10 μM; FIG. 12
Procedure: Human Hodgkin's lymphoma cells L1236 were incubated for 3, 5 or 7 days in complete RPMI1640 and 10% FBS. The cells were plated at 3×10^5 cells/mL.
The effect was more pronounced after 7 days of incubation.
The results are illustrated in FIG. 12. The y-axis represent the normalized viability when compared to control cells incubated with 0.1% DMSO with no interferon or IBT added, adjusted at 100%. The cell viability was determined using CellTiter 96 Aqueous One Solution Cell Proliferation Assay (Promega). (CellTiter 96 uses a novel tetrazolium compound (MTS) and an electron coupling reagent, phenazine ethosulfate.)

[5] = Cyclization of PFT-α to IBT in DMSO/water dilutions, reversed phase HPLC over time; format: physicochemical; details: for % cyclized to IBT: DMSO stock diluted with water, 25° C., reversed phase HPLC
Procedure: The preparation of PFT-α was accomplished as shown in Scheme 1 by reacting 4-methyl-2-bromoacetophenone with 2-amino-4,5,6,7-tetrahydrobenzothiazole. Upon recrystallization of the PFT-α from isopropyl alcohol, it was noticed that PFT-α readily ring-closed completely to the imidazo[2, 1-b]benzothiazole (IBT). Therefore, a subsequent investigation was undertaken to study the propensity of PFT-α to ring-close in protic solvents. […] Thus, PFT-α was dissolved in DMSO and water dilutions were made from this stock.

| Structure (SMILES) | CLL survival / toxicity (viable cells by PI exclusion and MTT) [1] | Effect on untreated CLL cells (spontaneous apoptosis) [2] | Protective effect on CLL cells treated with F-AraA (fludarabine) ([2]; with fludarabine, compared with PFT-α) | Viability of the treated cells, visually verified at the end of the incubation [3] | Anti-proliferative / growth-inhibitory effect on L1236 cells (normalized viability) [4] | % cyclized to IBT ([5]; 0 h) | % cyclized to IBT ([5]; 12 h) | % cyclized to IBT ([5]; 24 h) | % cyclized to IBT ([5]; 48 h) | Stability / ring closure in protic solvents and aqueous solution (in words) ([5]; protic solvents, room temperature, aqueous solution) |
| --- | --- | --- | --- | --- | --- | --- | --- | --- | --- | --- |
| Cc1ccc(-c2cn3c4c(sc3n2)CCCC4)cc1 [IBT] | non-toxic at concentrations up to 100 micromolar | nearly equivalent effects | less protective effects | > 95% | only a small anti-proliferative effect |  |  |  |  |  |
| Cc1ccc(C(=O)Cn2c3c(sc2=N)CCCC3)cc1 [PFT-α] | dose-dependently reduced CLL survival | nearly equivalent effects |  |  |  | 5% | 47% | 69% | 92% | unstable in aqueous solution under in vivo conditions; also recorded: begins cyclizing at room temperature immediately upon dissolution in protic solvents |
